# Measurements reported in patent US7495126B2, “Process of preparation of substituted tetrafluorobenzylaniline compound and its pharmaceutically approved salts” (priority 2005, dated 2009).
# How the values were obtained:
# [1] = Acute toxicity test in rats, single intravenous dose; assay type: in vivo; details: male, Sprague-Dawley, rat, in vivo, iv; rats, single i.v. dose, 14 days; read-out: Estimated LD50
# [2] = system: SD (Sprague Dawley) male rats; test: as above; assay type: in vivo; details: for Number of dead animals/Number of drug-treated animals: 14 days after administration; for toxicity compared with free base: rats, i.v., Tables 7-9
# [3] = physchem; assay type: physicochemical; details: 25 °C, water, thermodynamic from solid
# [4] = Stability test of oral preparation (powder in vial, HPLC); details: for Residual amount: powder (solid); for stability in powder form: high temperatures
# Procedure: It was then stored at different temperatures (25° C., 40° C., 60° C.) for 6 months and the amount of active ingredients in powder were measured by HPLC.
# [5] = Stability test of injectable preparation (salt in WFI, HPLC); details: for Residual amount: in WFI 2 mg/ml
compound,measurement,setting,value
"O=C(O)c1cc(NCc2c(F)c(F)c(C(F)(F)F)c(F)c2F)ccc1O [free base form, 2-hydroxy-5-(2,3,5,6-tetrafluoro-4-trifluoromethyl-benzylamino)benzoic acid]",LD50 at 14 day,[1],115 to 150 mg/kg
same,Number of dead animals/Number of drug-treated animals,[2]; 52 mg/kg single i.v. dose,0/7
same,Number of dead animals/Number of drug-treated animals,[2]; 68 mg/kg single i.v. dose,1/7
same,Number of dead animals/Number of drug-treated animals,[2]; 89 mg/kg single i.v. dose,3/7
same,Number of dead animals/Number of drug-treated animals,[2]; 115 mg/kg single i.v. dose,3/7
same,Number of dead animals/Number of drug-treated animals,[2]; 150 mg/kg single i.v. dose,6/7
same,Number of dead animals/Number of drug-treated animals,[2]; 171 mg/kg single i.v. dose,6/7
same,Number of dead animals/Number of drug-treated animals,[2]; 184 mg/kg single i.v. dose,7/7
same,Number of dead animals/Number of drug-treated animals,[2]; 195 mg/kg single i.v. dose,7/7
"O=C([O-])c1cc(NCc2c(F)c(F)c(C(F)(F)F)c(F)c2F)ccc1O.[Li+] [lithium salt, lithium 2-hydroxy-5-(2,3,5,6-tetrafluoro-4-trifluoromethyl-benzylamino)benzoate]",solubility at 48 h,[3],500 mg/mL
same,Residual amount,"[4]; 25° C., day 0",98.56 ± 0.89%
same,Residual amount,"[4]; 25° C., day 7",98.32 ± 0.32%
same,Residual amount,"[4]; 25° C., day 14",97.69 ± 2.58%
same,Residual amount,"[4]; 25° C., day 21",96.87 ± 1.64%
same,Residual amount,"[4]; 25° C., day 30",95.01 ± 1.10%
same,Residual amount,"[4]; 25° C., day 60",94.78 ± 8.09%
same,Residual amount,"[4]; 25° C., day 120",92.69 ± 1.03%
same,Residual amount,"[4]; 25° C., day 180",90.85 ± 1.61%
same,Residual amount,"[4]; 40° C., day 0",98.56 ± 0.89%
same,Residual amount,"[4]; 40° C., day 7",98.16 ± 0.09%
same,Residual amount,"[4]; 40° C., day 14",96.18 ± 3.28%
same,Residual amount,"[4]; 40° C., day 21",96.02 ± 2.49%
same,Residual amount,"[4]; 40° C., day 30",95.96 ± 0.89%
same,Residual amount,"[4]; 40° C., day 60",95.70 ± 6.88%
same,Residual amount,"[4]; 40° C., day 120",95.58 ± 1.38%
same,Residual amount,"[4]; 40° C., day 180",95.40 ± 2.37%
same,Residual amount,"[4]; 60° C., day 0",98.56 ± 0.89%
same,Residual amount,"[4]; 60° C., day 7",97.49 ± 0.80%
same,Residual amount,"[4]; 60° C., day 14",96.45 ± 2.80%
same,Residual amount,"[4]; 60° C., day 21",95.87 ± 2.09%
same,Residual amount,"[4]; 60° C., day 30",95.69 ± 2.97%
same,Residual amount,"[4]; 60° C., day 60",95.51 ± 1.99%
same,Residual amount,"[4]; 60° C., day 120",94.84 ± 0.56%
same,Residual amount,"[4]; 60° C., day 180",92.48 ± 3.14%
"O=C([O-])c1cc(NCc2c(F)c(F)c(C(F)(F)F)c(F)c2F)ccc1O.[K+] [potassium salt, potassium 2-hydroxy-5-(2,3,5,6-tetrafluoro-4-trifluoromethyl-benzylamino)benzoate]",solubility at 48 h,[3],590 mg/mL
same,LD50 at 14 day,[1],200 to 250 mg/kg
same,Number of dead animals/Number of drug-treated animals,[2]; 50 mg/kg single i.v. dose,0/6
same,Number of dead animals/Number of drug-treated animals,[2]; 100 mg/kg single i.v. dose,0/6
same,Number of dead animals/Number of drug-treated animals,[2]; 150 mg/kg single i.v. dose,0/6
same,Number of dead animals/Number of drug-treated animals,[2]; 200 mg/kg single i.v. dose,0/6
same,Number of dead animals/Number of drug-treated animals,[2]; 250 mg/kg single i.v. dose,3/3
same,Number of dead animals/Number of drug-treated animals,[2]; 300 mg/kg single i.v. dose,1/1
same,Number of dead animals/Number of drug-treated animals,[2]; 500 mg/kg single i.v. dose,2/2
same,toxicity compared with free base,[2],less toxicity than free base
same,stability in powder form,[4],relatively stable in high temperatures
same,Residual amount,"[4]; 25° C., day 0",100.43 ± 0.30%
same,Residual amount,"[4]; 25° C., day 30",100.31 ± 0.25%
same,Residual amount,"[4]; 25° C., day 60",100.20 ± 0.55%
same,Residual amount,"[4]; 25° C., day 90",100.17 ± 0.46%
same,Residual amount,"[4]; 25° C., day 120",100.07 ± 0.43%
same,Residual amount,"[4]; 25° C., day 180",100.03 ± 0.80%
same,Residual amount,"[4]; 40° C., day 0",100.43 ± 0.30%
same,Residual amount,"[4]; 40° C., day 30",100.28 ± 1.10%
same,Residual amount,"[4]; 40° C., day 60",100.14 ± 0.80%
same,Residual amount,"[4]; 40° C., day 90",100.10 ± 0.71%
same,Residual amount,"[4]; 40° C., day 120",99.81 ± 0.78%
same,Residual amount,"[4]; 40° C., day 180",99.78 ± 0.31%
same,Residual amount,"[4]; 60° C., day 0",100.43 ± 0.30%
same,Residual amount,"[4]; 60° C., day 30",99.60 ± 0.50%
same,Residual amount,"[4]; 60° C., day 60",99.56 ± 0.85%
same,Residual amount,"[4]; 60° C., day 90",99.27 ± 0.80%
same,Residual amount,"[4]; 60° C., day 120",99.03 ± 0.90%
same,Residual amount,"[4]; 60° C., day 180",98.87 ± 0.92%
same,Residual amount,"[5]; 25° C., day 7",103.92 ± 1.20%
same,stability profile in injectable preparation,"[5]; in WFI, 25-60° C., 6 months",better than that of sodium- and lithium-salt compound
"O=C([O-])c1cc(NCc2c(F)c(F)c(C(F)(F)F)c(F)c2F)ccc1O.[Na+] [sodium salt, sodium 2-hydroxy-5-(2,3,5,6-tetrafluoro-4-trifluoromethyl-benzylamino)benzoate]",solubility at 48 h,[3],25 to 80 mg/mL
same,LD50 at 14 day,[1],225 to 250 mg/kg
same,Number of dead animals/Number of drug-treated animals,[2]; 50 mg/kg single i.v. dose,0/5
same,Number of dead animals/Number of drug-treated animals,[2]; 100 mg/kg single i.v. dose,0/5
same,Number of dead animals/Number of drug-treated animals,[2]; 150 mg/kg single i.v. dose,0/7
same,Number of dead animals/Number of drug-treated animals,[2]; 175 mg/kg single i.v. dose,1/7
same,Number of dead animals/Number of drug-treated animals,[2]; 200 mg/kg single i.v. dose,2/7
same,Number of dead animals/Number of drug-treated animals,[2]; 225 mg/kg single i.v. dose,2/7
same,Number of dead animals/Number of drug-treated animals,[2]; 250 mg/kg single i.v. dose,5/5
same,toxicity compared with free base,[2],less toxicity than free base
same,stability in powder form,[4],relatively stable in high temperatures
same,Residual amount,"[4]; 25° C., day 0",101.33 ± 1.02%
same,Residual amount,"[4]; 25° C., day 7",100.75 ± 6.24%
same,Residual amount,"[4]; 25° C., day 14",100.45 ± 1.24%
same,Residual amount,"[4]; 25° C., day 21",99.76 ± 0.70%
same,Residual amount,"[4]; 25° C., day 30",99.61 ± 3.21%
same,Residual amount,"[4]; 25° C., day 60",99.60 ± 0.16%
same,Residual amount,"[4]; 25° C., day 120",99.51 ± 1.70%
same,Residual amount,"[4]; 25° C., day 180",99.19 ± 2.28%
same,Residual amount,"[4]; 40° C., day 0",101.33 ± 1.02%
same,Residual amount,"[4]; 40° C., day 7",100.81 ± 3.35%
same,Residual amount,"[4]; 40° C., day 14",100.69 ± 0.29%
same,Residual amount,"[4]; 40° C., day 21",100.57 ± 0.48%
same,Residual amount,"[4]; 40° C., day 30",100.46 ± 0.27%
same,Residual amount,"[4]; 40° C., day 60",100.07 ± 0.16%
same,Residual amount,"[4]; 40° C., day 120",99.94 ± 1.15%
same,Residual amount,"[4]; 40° C., day 180",99.89 ± 1.11%
same,Residual amount,"[4]; 60° C., day 0",101.33 ± 1.02%
same,Residual amount,"[4]; 60° C., day 7",101.27 ± 4.45%
same,Residual amount,"[4]; 60° C., day 14",101.14 ± 0.50%
same,Residual amount,"[4]; 60° C., day 21",100.15 ± 1.14%
same,Residual amount,"[4]; 60° C., day 30",100.10 ± 0.75%
same,Residual amount,"[4]; 60° C., day 60",99.91 ± 1.18%
same,Residual amount,"[4]; 60° C., day 120",99.81 ± 2.28%
same,Residual amount,"[4]; 60° C., day 180",99.75 ± 0.20%
same,Residual amount,"[5]; 25° C., day 0",104.15 ± 0.54%
same,Residual amount,"[5]; 25° C., day 3",101.89 ± 1.16%
same,Residual amount,"[5]; 25° C., day 7",100.59 ± 0.19%
same,Residual amount,"[5]; 25° C., day 14",101.63 ± 0.19%
same,Residual amount,"[5]; 25° C., day 21",99.25 ± 1.41%
same,Residual amount,"[5]; 25° C., day 30",98.50 ± 1.64%
same,Residual amount,"[5]; 25° C., day 60",98.52 ± 0.02%
same,Residual amount,"[5]; 25° C., day 90",94.04 ± 4.28%
same,Residual amount,"[5]; 25° C., day 120",92.79 ± 1.01%
same,Residual amount,"[5]; 25° C., day 150",90.18 ± 3.14%
same,Residual amount,"[5]; 25° C., day 180",85.56 ± 4.58%
same,Residual amount,"[5]; 40° C., day 0",104.15 ± 0.54%
same,Residual amount,"[5]; 40° C., day 3",102.77 ± 0.08%
same,Residual amount,"[5]; 40° C., day 7",98.54 ± 0.71%
same,Residual amount,"[5]; 40° C., day 14",99.56 ± 0.72%
same,Residual amount,"[5]; 40° C., day 21",95.98 ± 1.50%
same,Residual amount,"[5]; 40° C., day 30",95.17 ± 0.07%
same,Residual amount,"[5]; 40° C., day 60",91.51 ± 1.17%
same,Residual amount,"[5]; 40° C., day 90",86.36 ± 0.90%
same,Residual amount,"[5]; 40° C., day 120",79.02 ± 1.05%
same,Residual amount,"[5]; 40° C., day 150",77.42 ± 0.71%
same,Residual amount,"[5]; 40° C., day 180",72.32 ± 0.38%
same,Residual amount,"[5]; 60° C., day 0",104.15 ± 0.54%
same,Residual amount,"[5]; 60° C., day 3",99.39 ± 0.43%
same,Residual amount,"[5]; 60° C., day 7",92.01 ± 1.27%
same,Residual amount,"[5]; 60° C., day 14",92.96 ± 1.28%
same,Residual amount,"[5]; 60° C., day 21",84.54 ± 1.34%
same,Residual amount,"[5]; 60° C., day 30",82.88 ± 4.35%
same,Residual amount,"[5]; 60° C., day 60",70.25 ± 4.27%
same,Residual amount,"[5]; 60° C., day 90",56.00 ± 11.70%
same,Residual amount,"[5]; 60° C., day 120",53.43 ± 6.30%
same,Residual amount,"[5]; 60° C., day 150",40.37 ± 14.41%
same,Residual amount,"[5]; 60° C., day 180",37.10 ± 12.35%
